This is an account of results in US20020061902A1, “Treatment method” (SCHERING CORPORATION, priority 2000, published 2002).

One data set concerns eosinophils. In words: PAF-induced eosinophil chemotaxis (blind well-chamber technique). The format is cell-based, human. The note with it: 10 μM desloratadine; 1 μM PAF; eosinophils from patients with allergic rhinitis or allergic asthma; P<0.02.
Data set [1] concerns eosinophils / human umbilical endothelial cells (HUVECs). In words: TNFα-induced adhesion of 51Cr-labeled eosinophils to HUVECs. The format is cell-based. The note with it: 10 μM desloratadine; TNFA; P<0.02.
Text: Eosinophils were isolated and purified (>99% pure and >98% viable) from the blood of patients with allergic rhinitis or allergic asthma; a 2-week washout preceded blood collection.
Data set [2] is described as follows: stability of free base versus acid addition salt. It counts as physicochemical. The note with it: free base vs acid addition salt.
The subject of data set [3] is rhinitis due to pollen allergy. The conditions noted are these: given over a two week period; patients with rhinitis due to pollen allergy; cited from earlier work.

On to `Clc1ccc2c(c1)CCc1cccnc1C2=C1CCNCC1` [Desloratadine, desloratadine], for which the “maximum attenuation of PAF-induced eosinophil chemotaxis” value with eosinophils is given as 36%±8%. In addition, the “maximum attenuation of TNFα-induced eosinophil adhesion to HUVECs” value in data set [1] is 27%±5%. Also, in data set [2], the “stability as the free base compared with an acid addition salt” value is “more stable as the free base”.
As to `O=C(O)COCCN1CCN(C(c2ccccc2)c2ccc(Cl)cc2)CC1` (stereo not drawn) [cetirizine], in data set [3], the “ICAM-1 expression on nasal epithelial cells” value was “reduced”, the eosinophil counts entry is “reduced” and the rhinitis symptoms result is “reduced”.
Regarding `CCOC(=O)N1CCC(=C2c3ccc(Cl)cc3CCc3cccnc32)CC1` [loratadine], in data set [3], the “ICAM-1 expression on nasal epithelial cells” value is “reduced”, the eosinophil counts entry was “reduced” and the rhinitis symptoms result is “reduced”.
